# Patent publication US9738664B2, “Boronic acid inhibitors of HIV protease” (WISCONSIN ALUMNI RESEARCH FOUNDATION, priority 2014, dated 2017)
# Columns and labels:
# HIV-1 protease = biological target: T1, HIV-1 protease (Human immunodeficiency virus type 1 group M subtype B, UniProt P03367, C567A/C595A/L533I/L563I/Q507K); test: biochemical
# T1 construct: Double-stranded, linear DNA encoding HIV-1 protease; 8xHis (self-cleavable) (N, cleaved yes); made in house
# Method: This peptide was used as a fluorogenic substrate for HIV protease by monitoring the fluorescence of the Edans group (5-((2-aminoethyl)amino)naphthalene-1-sulfonic acid) upon substrate hydrolysis and separation from the quenching Dabcyl group (4-((4-(dimethylamino)phenyl)azo)benzoic acid, succinimidyl ester. [6] Substrate was dissolved at 1 mM by sonication in DMF containing TFA (0.1% v/v). Stock solutions of each putative HIV protease inhibitor were generated by dissolving the inhibitor in DMF to a concentration of 50 mM and diluting in DMF to ˜100×stocks of the final assay concentrations. Assays were performed in 50 mM sodium acetate buffer, pH 5.0, containing NaCl (100 mM). Wells in a microtiter plate were charged initially with inhibitor (various concentrations) and substrate (final concentration: 10 μM). HIV protease was then added (final concentration: 50-150 μM). Reaction velocities in the assay solutions (total volume: 200 μL) were measured in quadruplicate at 7-9 inhibitor concentrations including no-inhibitor and no-enzyme controls.
# HIV = test: Inhibition of HIV cytopathic toxicity in MT-4 cells (MTS cell viability); format: cell-based; details: virus from pNL4-3 at 100×TCID50, 7 days, MTS assay (FIG. 3)
# Method: The ability of B-darunavir to inhibit the cytopathic toxicity of HIV was determined by standard methods (11). Briefly, both human lymphocyte cell line MT-4 and plasmid pNL4-3, which directs the production of infectious virions (12), were obtained from the NIH AIDS Reagent Program. […] Then, MT-4 cells were transfected with plasmid pNL4-3. Maximal virus production was detected on Day 6 post-transfection. Viral inhibition assays were conducted with 25,000 MT-4 cells in 200 μL of RPMI medium containing fetal bovine serum (10% v/v). Infections were conducted with virus at 100×TCID50 by resuspending pelleted cells in 500 μL of virus-containing medium and incubating for 4 h prior to plating with B-darunavir. After 7 days, the loss of HIV cytopathic toxicity was assessed by measuring cell viability using the MTS assay from Promega (Madison, Wis.).
# MT-4 cells = test: Toxicity for MT-4 cells (growth inhibition); format: cell-based, human; details: concentrations up to 1 mM
Compound,Ki (HIV-1 protease),concentration that inhibits the toxicity of HIV for human lymphocytes (HIV),inhibition of the growth of MT-4 cells (toxicity) (MT-4 cells)
CC(C)CN(C[C@@H](O)[C@H](Cc1ccccc1)NC(=O)O[C@H]1CCOC1)S(=O)(=O)c1ccc(B(O)O)cc1 [B-Amprenavir (6)],2.1 ± 0.3 pM,–,–
CC(C)CN(C[C@@H](O)[C@H](Cc1ccccc1)NC(=O)O[C@H]1CO[C@H]2OCC[C@H]21)S(=O)(=O)c1ccc(B(O)O)cc1 [B-Darunavir (9)],–,≥ 100 nM,not to cause a significant inhibition of the growth of MT-4 cells
